The compounds below were run against T1, cloned human glucagon receptor (Homo sapiens, UniProt P47871) (assay: Glucagon Binding Assay (II)). Settings: plasma membranes of BHK cells expressing the receptor; read-out: Glu Bd Assay (II) IC50.
T1 construct: expressed in transfected cells; plasma membrane preparation
T1 sequence (P47871 26-477): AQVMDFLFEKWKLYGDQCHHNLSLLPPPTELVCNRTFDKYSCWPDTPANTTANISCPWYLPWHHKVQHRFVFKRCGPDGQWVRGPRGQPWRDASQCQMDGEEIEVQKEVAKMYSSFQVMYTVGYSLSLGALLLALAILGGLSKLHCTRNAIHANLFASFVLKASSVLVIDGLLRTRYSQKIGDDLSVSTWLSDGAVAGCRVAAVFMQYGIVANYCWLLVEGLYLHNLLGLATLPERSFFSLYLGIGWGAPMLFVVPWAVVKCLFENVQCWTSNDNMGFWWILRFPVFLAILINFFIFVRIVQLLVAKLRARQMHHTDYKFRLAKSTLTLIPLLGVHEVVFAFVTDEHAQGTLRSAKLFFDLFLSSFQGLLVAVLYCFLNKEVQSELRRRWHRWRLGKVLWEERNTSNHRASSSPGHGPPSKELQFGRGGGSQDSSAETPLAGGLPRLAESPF

Row | IC50 [nM] | SMILES
1 | 166 | O=C(Nc1nn[nH]n1)c1ccc(CN(Cc2ccc(OC(F)(F)F)cc2)[C@H]2CC[C@@H](C3CCCCC3)CC2)cc1 [Example 572, 4-({(4-cis-Cyclohexylcyclohexyl)-[4-(trifluoromethoxy)benzyl]amino}methyl)-N-(2H-tetrazol-5-yl)benzamide]
2 | 159 | O=C(Nc1nn[nH]n1)c1ccc(CN(Cc2ccc(OC(F)(F)F)cc2)[C@H]2CC[C@H](C3CCCCC3)CC2)cc1 [Example 574, 4-({(trans-4-Cyclohexylcyclohexyl)-[4-(trifluoromethoxy)benzyl]amino}methyl)-N-(2H-tetrazol-5-yl)benzamide]
3 | 468 | CC(C)(C)C1CCC(N(Cc2ccc(S(=O)(=O)NCCC(=O)O)cc2)C(=O)Nc2ccc(OC(F)(F)F)cc2)CC1 (stereo not drawn) [Example 106, 3-{4-[1-(4-tert-Butylcyclohexyl)-3-(4-trifluoromethoxyphenyl)ureidomethyl]benzenesulfonylamino)propionic acid]
4 | 29 | CC(C)(C)C1CCC(N(Cc2ccc(C(=O)NCCC(=O)O)cc2)C(=O)Nc2ccc(Cl)c(C(F)(F)F)c2)CC1 (stereo not drawn) [Example 236]
5 | 284 | O=C(Nc1nn[nH]n1)c1ccc(CN(Cc2cccc(Br)c2)c2ccc(C3CCCCC3)cc2)cc1 [Example 584, 4-{[(3-Bromobenzyl)-(4-cyclohexylphenyl)amino]methyl}-N-(2H-tetrazol-5-yl)benzamide]
6 | 161 | CC(C)(C)C1CCC(N(Cc2ccc(C(=O)NCCC(=O)O)cn2)C(=O)Nc2ccc(OC(F)(F)F)cc2)CC1 (stereo not drawn) [Example 612, 3-({6-[1-(4-tert-Butylcyclohexyl)-3-(4-trifluoromethoxyphenyl)ureidomethyl]pyridine-3-carbonyl}amino)propionic acid]
7 | 119 | CC(C)(C)C1CCC(N(Cc2ccc(C(=O)NCCC(=O)O)cc2)C(=O)Nc2ccc(SC(F)(F)F)cc2)CC1 (stereo not drawn) [Example 101, 3-{4-[1-(4-tert-Butylcyclohexyl)-3-(4-trifluoromethylsulfanylphenyl)ureidomethyl]benzoylamino)propionic acid]
8 | 916 | C[C@H](C1CCCCC1)N(Cc1ccc(C(=O)NCCC(=O)O)cc1)C(=O)Nc1ccc2ccccc2c1 [Example 109, 3-{4-[1-((1R)-1-Cyclohexylethyl)-3-naphthalene-2-ylureidomethyl]benzoylamino)propionic acid]
9 | 150 | CC(C)(C)C1CCC(N(Cc2ccc(C(=O)NCCC(=O)O)cc2)C(=O)Nc2cc(Cl)nc(Cl)c2)CC1 (stereo not drawn) [Example 103, 3-{4-[1-(4-tert-Butylcyclohexyl)-3-(2,6-dichloropyridin-4-yl)ureidomethyl]benzoylamino)propionic acid]
10 | 677 | C[C@@H](NC(=O)N(Cc1ccc(C(=O)NCCC(=O)O)cc1)c1ccc(C2CCCCC2)cc1)c1ccccc1 [Example 608, 3-{4-[1-(4-Cyclohexylphenyl)-3-((1R)-1-phenylethyl)ureidomethyl]benzoylamino}propionic acid]
11 | 15 | O=C(Nc1nn[nH]n1)c1ccc(CN(C(=O)Nc2ccc(OC(F)(F)F)cc2)[C@H]2CC[C@@H](C3CCCCC3)CC2)cc1 [Example 575, 4-[1-(4-cis-Cyclohexylcyclohexyl)-3-(4-trifluoromethoxyphenyl)ureidomethyl]-N-(2H-tetrazol-5-yl)benzamide]
12 | 637 | O=C(O)CCNC(=O)c1ccc(CN(C(=O)Nc2cc(Cl)cc(Cl)c2)C2Cc3ccccc3C2)cc1 [Example 138, 3-{4-[1-Indan-2-yl-3-(3,5-dichlorophenyl)ureidomethyl]benzoylamino}propionic acid]
13 | 4 | Cc1cc(C)c(Cc2ccc(C(=O)NN(Cc3ccc(C(=O)NCCC(=O)O)cc3)[C@H]3CC[C@@H](C(C)(C)C)CC3)o2)c(C)c1 [Example 591, 3-(4-{N-(cis-4-tert-Butylcyclohexyl)-N′-[5-(2,4,6-trimethylbenzyl)furan-2-carbonyl]hydrazinomethyl}benzoylamino)propionic acid]
14 | 207 | C[C@@H](NC(=O)N(Cc1ccc(C(=O)Nc2nn[nH]n2)cc1)c1ccc(C2CCCCC2)cc1)c1ccccc1 [Example 598, 4-[1-(4-Cyclohexylphenyl)-3-((1R)-1-phenylethyl)ureidomethyl]-N-(2H-tetrazol-5-yl)benzamide]
15 | 217 | CCCCOC(=O)c1ccc(NC(=O)N(Cc2ccc(C(=O)NCCC(=O)O)cc2)C2CCCCCC2)cc1
16 | 7 | CC(C)(C)[C@H]1CC[C@H](N(Cc2ccc(C(=O)Nc3nn[nH]n3)cc2)C(=O)Nc2ccc(OC(F)(F)F)cc2)CC1 [Example 158, 4-[1-(trans-4-tert-Butylcyclohexyl)-3-(4-trifluoromethoxyphenyl)ureidomethyl]-N-(2H-tetrazol-5-yl)benzamide]
17 | 11 | CC(C)(C)[C@H]1CC[C@H](N(Cc2ccc(C(=O)Nc3nn[nH]n3)cc2)C(=O)Nc2cc(Cl)cc(Cl)c2)CC1 [Example 174, 4-[1-(trans-4-tert-Butylcyclohexyl)-3-(3,5-dichlorophenyl)ureidomethyl]-N-(2H-tetrazol-5-yl)benzamide]
18 | 112 | C[C@H](NC(=O)N(Cc1ccc(C(=O)Nc2nn[nH]n2)cc1)c1ccc(C2CCCCC2)cc1)c1ccccc1 [Example 596, 4-[1-(4-Cyclohexylphenyl)-3-((1S)-1-phenylethyl)ureidomethyl]-N-(2H-tetrazol-5-yl)benzamide]

Same assay, conditions: screened at 1 μM; library compounds; read-out: displacement of the glucagon tracer when screened at 1 μM concentration in the glucagon binding assay II

Row | inhibition at 1 µM [%] | SMILES
19 | > 50 | O=C(O)CCNC(=O)c1ccc(CN(C(=O)NCOc2ccc3ccccc3c2)c2ccc(C3CCCCC3)cc2)cc1 [Example 203, 3-{4-[1-(4-Cyclohexylphenyl)-3-(naphthalen-2-yloxymethyl)ureidomethyl]benzoylamino}propionic acid]
20 | > 50 | CN1C(=O)c2ccc(NC(=O)N(Cc3ccc(C(=O)NCCC(=O)O)cc3)C3CCC(C(C)(C)C)CC3)cc2C1=O (stereo not drawn) [Example 209, 3-{4-[1-(4-tert-Butylcyclohexyl)-3-(2-methyl-1,3-dioxo-2,3-dihydro-1H-isoindol-5-yl)ureidomethyl]benzoylamino}propionic acid]
21 | > 50 | O=C(O)CCNC(=O)c1ccc(CN(Cc2ccc(C(F)(F)F)cc2)C(=O)Nc2ccc(SC(F)(F)F)cc2)cc1 [Example 120, 3-{4-[1-(4-Trifluoromethylbenzyl)-3-(4-trifluoromethylsulfanylphenyl)ureidomethyl]benzoylamino)propionic acid]
22 | > 50 | CCOc1ccc(NC(=O)N(Cc2ccc(C(=O)NCCC(=O)O)cc2)C2CCC(C(C)(C)C)CC2)cc1 (stereo not drawn) [Example 200, 3-{4-[1-(4-tert-Butylcyclohexyl)-3-(4-ethoxyphenyl)ureidomethyl]benzoylamino}propionic acid]
23 | > 50 | O=C(O)CCNC(=O)c1ccc(CN(Cc2ccc(Cl)cc2)Cc2ccc(Cl)cc2)s1 [Example 148, 3-(5-{[Bis-(4-chlorobenzyl)amino]methyl}thiophene-2-carbonylamino)propionic acid]
24 | > 50 | Cc1cc(C)cc(NC(=O)N(Cc2ccc(C(=O)NCCC(=O)O)cc2)C2CCC(C(C)(C)C)CC2)c1 (stereo not drawn) [Example 197, 3-{4-[1-(4-tert-Butylcyclohexyl)-3-(3,5-dimethylphenyl)ureidomethyl]benzoylamino}propionic acid]
25 | > 50 | O=C(O)CCNC(=O)c1ccc(CN(Cc2ccccc2OC(F)(F)F)C(=O)Nc2ccc(SC(F)(F)F)cc2)s1 [Example 126, 3-{5-[1-(2-Trifluoromethoxybenzyl)-3-(4-trifluoromethylsulfanylphenyl)ureidomethyl]thiophene-2-carbonylamino)propionic acid]
26 | > 50 | O=C(O)CCCOc1ccc(CN(C(=O)Nc2ccc(Cl)c(C(F)(F)F)c2)c2ccc(C3CCCCC3)cc2)cc1 [Example 217, 4-{4-[3-(4-Chloro-3-trifluoromethylphenyl)-1-(4-cyclohexylphenyl)ureidomethyl]phenoxy}butyric acid]
27 | > 50 | CC(C)(C)C1CCC(N(Cc2ccc(C(=O)NCCC(=O)O)cc2)C(=O)Nc2cccc(SC(F)(F)F)c2)CC1 (stereo not drawn) [Example 199, 3-{4-[1-(4-tert-Butylcyclohexyl)-3-(3-trifluoromethylsulfanylphenyl)ureidomethyl]benzoylamino}propionic acid]
28 | > 50 | CC(C)(C)C1CCC(N(Cc2ccc(C(=O)NCCC(=O)O)cc2)C(=O)NC2CC2c2ccccc2)CC1 (stereo not drawn) [Example 132, 3-{4-[1-(4-tert-Butylcyclohexyl)-3-(2-phenylcyclopropyl)ureidomethyl]benzoylamino)propionic acid]
29 | > 50 | CC(C)(C)C1CCC(N(Cc2ccc(C(=O)Nc3ccc4c(c3)OCCO4)cc2)C(=O)Nc2ccc(Cl)cc2)CC1 (stereo not drawn) [Example 160, 4-[1-(4-tert-Butylcyclohexyl)-3-(4-chlorophenyl)ureidomethyl]-N-(2,3-dihydro-1,4-benzodioxin-6-yl)benzamide]
30 | > 50 | CC(C)(C)C1CCC(N(Cc2ccc(C(=O)NCCC(=O)O)cc2)C(=O)Nc2ccc(C(=O)O)cc2)CC1 (stereo not drawn) [Example 196, 4-{3-(4-tert-Butylcyclohexyl)-3-[4-(2-carboxyethylcarbamoyl)benzyl]ureido}benzoic acid]
31 | > 50 | O=C(O)CCNC(=O)c1ccc(CN(CCc2cccc(Cl)c2)C(=O)Nc2ccc(Cl)c(C(F)(F)F)c2)cc1 [Example 181, 3-{4-[1-[2-(3-Chlorophenyl)ethyl]-3-(4-chloro-3-trifluoromethylphenyl)ureidomethyl]benzoylamino}propionic acid]
32 | > 50 | CC1(C)C2CCC(CN(Cc3ccc(OCCCC(=O)O)cc3)C(=O)Nc3ccc(Cl)c(C(F)(F)F)c3)C1C2 (stereo not drawn) [Example 215, 4-{4-[3-(4-Chloro-3-trifluoromethylphenyl)-1-(6,6-dimethylbicyclo[3.1.1]hept-2-ylmethyl)ureidomethyl]phenoxy}butyric acid]
33 | > 50 | Cc1cc(C)cc(NC(=O)N(Cc2ccc(C(=O)NCCC(=O)O)cc2)c2ccc(C3CCCCC3)cc2)c1 [Example 186, 3-{4-[1-(4-Cyclohexylphenyl)-3-(3,5-dimethylphenyl)ureidomethyl]benzoylamino}propionic acid]
